Measurements from patent publication US10206394B2, “Herbicidal compounds” (Syngenta Participations AG, priority 2014, dated 2019).
Read-outs that look alike come from different tables or passages of the source.

Experiments:
Assay in all cases: Glasshouse assay for herbicidal activity (pre- and post-emergence), percentage phytotoxicity
Format in all cases: in vivo
[1] = system: Avena fatua (AVEFA); details: Avena fatua
In short: (§1)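 Potted test plants in standard soil received the compound pre-emergence (day 1) or post-emergence (about day 12). Evaluation: visual damage score from 0% (none) to 100% (total), 15 days after application post-emergence, 20 days pre-emergence.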

[2] = system: Lolium perenne (LOLPE); details: Lolium perenne
In short: as §1

[3] = system: Alopecurus myosuroides (ALOMY); details: Alopecurus myosuroides
In short: as §1

[4] = system: Echinochloa crus-galli (ECHCG); details: Echinochloa crus-galli
In short: as §1

[5] = post-emergence, 360 h, 250 g/ha, post-emergence, 15 DAA, visual assessment (100%=total damage, 0%=no damage), read-out: Post-emergence herbicidal activity (percentage phytotoxicity) AVEFA POST
[6] = pre-emergence, 480 h, 250 g/ha, pre-emergence, 20 DAA, visual assessment (100%=total damage, 0%=no damage), read-out: Pre-emergence herbicidal activity (percentage phytotoxicity) AVEFA PRE
[7] = post-emergence, 360 h, 250 g/ha, post-emergence, 15 DAA, visual assessment (100%=total damage, 0%=no damage), read-out: Post-emergence herbicidal activity (percentage phytotoxicity) LOLPE POST
[8] = pre-emergence, 480 h, 250 g/ha, pre-emergence, 20 DAA, visual assessment (100%=total damage, 0%=no damage), read-out: Pre-emergence herbicidal activity (percentage phytotoxicity) LOLPE PRE
[9] = post-emergence, 360 h, 250 g/ha, post-emergence, 15 DAA, visual assessment (100%=total damage, 0%=no damage), read-out: Post-emergence herbicidal activity (percentage phytotoxicity) ALOMY POST
[10] = pre-emergence, 480 h, 250 g/ha, pre-emergence, 20 DAA, visual assessment (100%=total damage, 0%=no damage), read-out: Pre-emergence herbicidal activity (percentage phytotoxicity) ALOMY PRE
[11] = post-emergence, 360 h, 250 g/ha, post-emergence, 15 DAA, visual assessment (100%=total damage, 0%=no damage), read-out: Post-emergence herbicidal activity (percentage phytotoxicity) ECHCG POST
[12] = pre-emergence, 480 h, 250 g/ha, pre-emergence, 20 DAA, visual assessment (100%=total damage, 0%=no damage), read-out: Pre-emergence herbicidal activity (percentage phytotoxicity) ECHCG PRE
[13] = post-emergence, 360 h, Rate 250 g/ha, post-emergence, visual assessment 15 DAA, 100%=total damage, 0%=no damage, read-out: Post-emergence herbicidal activity (percentage phytotoxicity) AVEFA POST
[14] = pre-emergence, 480 h, Rate 250 g/ha, pre-emergence, visual assessment 20 DAA, 100%=total damage, 0%=no damage, read-out: Pre-emergence herbicidal activity (percentage phytotoxicity) AVEFA PRE
[15] = post-emergence, 360 h, Rate 250 g/ha, post-emergence, visual assessment 15 DAA, 100%=total damage, 0%=no damage, read-out: Post-emergence herbicidal activity (percentage phytotoxicity) LOLPE POST
[16] = pre-emergence, 480 h, Rate 250 g/ha, pre-emergence, visual assessment 20 DAA, 100%=total damage, 0%=no damage, read-out: Pre-emergence herbicidal activity (percentage phytotoxicity) LOLPE PRE
[17] = post-emergence, 360 h, Rate 250 g/ha, post-emergence, visual assessment 15 DAA, 100%=total damage, 0%=no damage, read-out: Post-emergence herbicidal activity (percentage phytotoxicity) ALOMY POST
[18] = pre-emergence, 480 h, Rate 250 g/ha, pre-emergence, visual assessment 20 DAA, 100%=total damage, 0%=no damage, read-out: Pre-emergence herbicidal activity (percentage phytotoxicity) ALOMY PRE
[19] = post-emergence, 360 h, Rate 250 g/ha, post-emergence, visual assessment 15 DAA, 100%=total damage, 0%=no damage, read-out: Post-emergence herbicidal activity (percentage phytotoxicity) ECHCG POST
[20] = pre-emergence, 480 h, Rate 250 g/ha, pre-emergence, visual assessment 20 DAA, 100%=total damage, 0%=no damage, read-out: Pre-emergence herbicidal activity (percentage phytotoxicity) ECHCG PRE
[21] = post-emergence, 360 h, Rate 250 g/ha, post-emergence, assessed visually 15 DAA, 100%=total damage, 0%=no damage, read-out: Post-emergence herbicidal activity (percentage phytotoxicity) AVEFA POST
[22] = pre-emergence, 480 h, Rate 250 g/ha, pre-emergence, assessed visually 20 DAA, 100%=total damage, 0%=no damage, read-out: Pre-emergence herbicidal activity (percentage phytotoxicity) AVEFA PRE
[23] = post-emergence, 360 h, Rate 250 g/ha, post-emergence, assessed visually 15 DAA, 100%=total damage, 0%=no damage, read-out: Post-emergence herbicidal activity (percentage phytotoxicity) LOLPE POST
[24] = pre-emergence, 480 h, Rate 250 g/ha, pre-emergence, assessed visually 20 DAA, 100%=total damage, 0%=no damage, read-out: Pre-emergence herbicidal activity (percentage phytotoxicity) LOLPE PRE
[25] = post-emergence, 360 h, Rate 250 g/ha, post-emergence, assessed visually 15 DAA, 100%=total damage, 0%=no damage, read-out: Post-emergence herbicidal activity (percentage phytotoxicity) ALOMY POST
[26] = pre-emergence, 480 h, Rate 250 g/ha, pre-emergence, assessed visually 20 DAA, 100%=total damage, 0%=no damage, read-out: Pre-emergence herbicidal activity (percentage phytotoxicity) ALOMY PRE
[27] = post-emergence, 360 h, Rate 250 g/ha, post-emergence, assessed visually 15 DAA, 100%=total damage, 0%=no damage, read-out: Post-emergence herbicidal activity (percentage phytotoxicity) ECHCG POST
[28] = pre-emergence, 480 h, Rate 250 g/ha, pre-emergence, assessed visually 20 DAA, 100%=total damage, 0%=no damage, read-out: Pre-emergence herbicidal activity (percentage phytotoxicity) ECHCG PRE

Compound	pest or weed control at 250 g/ha [1, 5] [%]	pest or weed control at 250 g/ha [1, 6] [%]	pest or weed control at 250 g/ha [2, 7] [%]	pest or weed control at 250 g/ha [2, 8] [%]	pest or weed control at 250 g/ha [3, 9] [%]	pest or weed control at 250 g/ha [3, 10] [%]	pest or weed control at 250 g/ha [4, 11] [%]	pest or weed control at 250 g/ha [4, 12] [%]	further results
Cc1cc(-c2ncc(F)cc2F)cc(C)c1C1C(=O)CC(CC(=O)NCc2cccc(C(F)(F)F)c2)C1=O (centres unmarked) [Compound B88]	100	70	100	90	100	90	100	90	
Cc1cc(C)c(C2C(=O)CC(CC(=O)Nc3ccccn3)C2=O)c(C)c1 (centres unmarked) [Compound B64]	70	50	80	70	80	80	70	80	
COCC(C)(C)NC(=O)CC1CC(=O)C(c2c(C)cc(-c3ccc(Cl)cn3)cc2C)C1=O (centres unmarked) [Compound B364]									pest or weed control at 250 g/ha [1, 13]: 90%; pest or weed control at 250 g/ha [1, 14]: 80%; pest or weed control at 250 g/ha [2, 15]: 90%; pest or weed control at 250 g/ha [2, 16]: 90%; pest or weed control at 250 g/ha [3, 17]: 100%; pest or weed control at 250 g/ha [3, 18]: 100%; pest or weed control at 250 g/ha [4, 19]: 90%; pest or weed control at 250 g/ha [4, 20]: 90%
Cc1cc(C)c(C2C(=O)CC(CC(=O)NC3(C)CCCC3)C2=O)c(C)c1 (centres unmarked) [Compound B41]	70	30	60	70	80	70	60	60	
Cc1cc(C)c(C2C(=O)CC(C(C)C(=O)NC(C)(C)C)C2=O)c(C)c1 (centres unmarked) [Compound A164]									pest or weed control at 250 g/ha [1, 21]: 70%; pest or weed control at 250 g/ha [1, 22]: 10%; pest or weed control at 250 g/ha [2, 23]: 60%; pest or weed control at 250 g/ha [2, 24]: 60%; pest or weed control at 250 g/ha [3, 25]: 70%; pest or weed control at 250 g/ha [3, 26]: 70%; pest or weed control at 250 g/ha [4, 27]: 70%; pest or weed control at 250 g/ha [4, 28]: 70%
Cc1cc(C)c(C2C(=O)CC(CC(=O)NC(C)C(F)(F)F)C2=O)c(C)c1 (centres unmarked) [Compound B63]	70	50	70	80	70	80	70	80	
Cc1cc(C)c(C2C(=O)CC(CC(=O)NC3CCC(C)CC3C)C2=O)c(C)c1 (centres unmarked) [Compound A103]									pest or weed control at 250 g/ha [1, 21]: 10%; pest or weed control at 250 g/ha [2, 23]: 20%; pest or weed control at 250 g/ha [3, 25]: 60%; pest or weed control at 250 g/ha [4, 27]: 20%
C#CCN(C)C(=O)CC1CC(=O)C(c2c(C)cc(-c3ncc(Cl)cn3)cc2C)C1=O (centres unmarked) [Compound B349]									pest or weed control at 250 g/ha [1, 13]: 100%; pest or weed control at 250 g/ha [1, 14]: 90%; pest or weed control at 250 g/ha [2, 15]: 100%; pest or weed control at 250 g/ha [2, 16]: 90%; pest or weed control at 250 g/ha [3, 17]: 100%; pest or weed control at 250 g/ha [3, 18]: 100%; pest or weed control at 250 g/ha [4, 19]: 100%; pest or weed control at 250 g/ha [4, 20]: 90%
C#CCN(C)C(=O)CC1CC(=O)C(c2c(C)cc(/C=C/C)cc2CC)C1=O (centres unmarked) [Compound B195]									pest or weed control at 250 g/ha ([1]; post-emergence, 360 h, POST-emergence, rate 250 g/ha, visual score 15 DAA (100%=total damage, 0%=no damage), read-out: Post-emergence herbicidal activity (percentage phytotoxicity) AVEFA POST): 100%; pest or weed control at 250 g/ha ([1]; pre-emergence, 480 h, PRE-emergence, rate 250 g/ha, visual score 20 DAA (100%=total damage, 0%=no damage), read-out: Pre-emergence herbicidal activity (percentage phytotoxicity) AVEFA PRE): 80%; pest or weed control at 250 g/ha ([2]; post-emergence, 360 h, POST-emergence, rate 250 g/ha, visual score 15 DAA (100%=total damage, 0%=no damage), read-out: Post-emergence herbicidal activity (percentage phytotoxicity) LOLPE POST): 100%; pest or weed control at 250 g/ha ([2]; pre-emergence, 480 h, PRE-emergence, rate 250 g/ha, visual score 20 DAA (100%=total damage, 0%=no damage), read-out: Pre-emergence herbicidal activity (percentage phytotoxicity) LOLPE PRE): 100%; pest or weed control at 250 g/ha ([3]; post-emergence, 360 h, POST-emergence, rate 250 g/ha, visual score 15 DAA (100%=total damage, 0%=no damage), read-out: Post-emergence herbicidal activity (percentage phytotoxicity) ALOMY POST): 100%; pest or weed control at 250 g/ha ([3]; pre-emergence, 480 h, PRE-emergence, rate 250 g/ha, visual score 20 DAA (100%=total damage, 0%=no damage), read-out: Pre-emergence herbicidal activity (percentage phytotoxicity) ALOMY PRE): 90%; pest or weed control at 250 g/ha ([4]; post-emergence, 360 h, POST-emergence, rate 250 g/ha, visual score 15 DAA (100%=total damage, 0%=no damage), read-out: Post-emergence herbicidal activity (percentage phytotoxicity) ECHCG POST): 100%; pest or weed control at 250 g/ha ([4]; pre-emergence, 480 h, PRE-emergence, rate 250 g/ha, visual score 20 DAA (100%=total damage, 0%=no damage), read-out: Pre-emergence herbicidal activity (percentage phytotoxicity) ECHCG PRE): 100%
C=C(Br)CNC(=O)CC1CC(=O)C(c2c(C)cc(C)cc2C)C1=O (centres unmarked) [Compound B102]	60	0	90	100	60	60	60	80	
Cc1cc(-c2ccc(Cl)cc2)cc(C)c1C1C(=O)CC(CC(=O)NC(C)C)C1=O (centres unmarked) [Compound A35]									pest or weed control at 250 g/ha [1, 21]: 100%; pest or weed control at 250 g/ha [1, 22]: 100%; pest or weed control at 250 g/ha [2, 23]: 100%; pest or weed control at 250 g/ha [2, 24]: 100%; pest or weed control at 250 g/ha [3, 25]: 90%; pest or weed control at 250 g/ha [3, 26]: 90%; pest or weed control at 250 g/ha [4, 27]: 100%; pest or weed control at 250 g/ha [4, 28]: 100%
CC(C)=CCNC(=O)CC1CC(=O)C(c2c(C)cc(C)cc2C)C1=O (centres unmarked) [Compound B163]	80	50	80	100	80	90	90	90	
